Laboratory results reported in US12435320B2, “CRISPR having or associated with destabilization domains” (The Broad Institute, Inc., priority 2014, dated 2025).

Columns and labels:
[1] = tested on: Factor VII; conditions: LNP siRNA systems containing these lipids; hepatocytes in vivo; cited from earlier work
[2] = tested on: Mutants of human FKBP12; conditions: cited from earlier work
[3] = tested on: human embryonic stem cells (hESCs); assay: Mutagenic NHEJ by Cas9-D10A nickase in human embryonic stem cells; assay type: cell-based
From the text: The CRISPR enzyme is Cas9, and may be Cas9 from S. pyogenes or S. pneumoniae. In some embodiments, the CRISPR enzyme directs cleavage of one or both strands at the location of a target sequence, such as within the target sequence and/or within the complement of the target sequence. In some embodiments, the CRISPR enzyme directs cleavage of one or both strands within about 1, 2, 3, 4, 5, 6, 7, 8, 9, 10, 15, 20, 25, 50, 100, 200, 500, or more base pairs from the first or last nucleotide of a target sequence. In some embodiments, a vector encodes a CRISPR enzyme that is mutated to with respect to a corresponding wild-type enzyme such that the mutated CRISPR enzyme lacks the ability to cleave one or both strands of a target polynucleotide containing a target sequence. […] In some embodiments, a Cas9 nickase may be used in combination with guide sequenc(es), e.g., two guide sequences, which target respectively sense and antisense strands of the DNA target. This combination allows both strands to be nicked and used to induce NHEJ.

[4] = tested on: dystrophin; conditions: across 48 weeks; cited from earlier work
[5] = Double nicking indel formation with sgRNA pairs; assay type: cell-based; conditions: substitution of Cas9n with Cas9H840A with a given sgRNA pair; eukaryotic system
From the text: Aspects of the invention relate to the expression of the gene product being decreased or a template polynucleotide being further introduced into the DNA molecule encoding the gene product or an intervening sequence being excised precisely by allowing the two 5′ overhangs to reanneal and ligate or the activity or function of the gene product being altered or the expression of the gene product being increased. In an embodiment of the invention, the gene product is a protein. Only sgRNA pairs creating 5′ overhangs with less than 8 bp overlap between the guide sequences (offset greater than −8 bp) were able to mediate detectable indel formation. […] Nonetheless, a pair of sgRNAs that will generate a 5′ overhang with Cas9n should in principle generate the corresponding 3′ overhang instead, and double nicking. […] Accordingly, in some embodiments, a recombination template is also provided. A recombination template may be a component of another vector as described herein, contained in a separate vector, or provided as a separate polynucleotide. In some embodiments, a recombination template is designed to serve as a template in homologous recombination, such as within or near a target sequence nicked or cleaved by a CRISPR enzyme as a part of a CRISPR complex. […]

[6] = tested on: mammalian DHFR (DHFRts); conditions: addition to cells expressing DHFRts; cited from earlier work
[7] = tested on: EGFP gene; assay: Decrease in EGFP positive cells in an EGFP-producing cell line treated with SpCas9-DD fusion protein and guide RNA; assay type: cell-based; conditions: DHFR-SpCas9-DHFR (DSPD); increasing dosages of TMP
[8] = tested on: EGFP gene; assay: U2OS.EGFP knockdown assay, loss of EGFP fluorescence, high-content automated microscope imaging; assay type: cell-based; conditions: ligand added to the DD-SpCas9-DD fusion protein and EGFP guide RNA
From the text: The low throughput, flow cytometry-readout was replaced with a high-throughput readout using a high-content, automated microscope imaging. This assay can be run in a 96-well format and the data can be analyzed by a high-throughput image analysis platform, called ImageExpress.

For CCCCC/C=C\C/C=C\CCCCCCCCOCC(CN(C)C)OCCCCCCCC/C=C\C/C=C\CCCCC (stereo not shown) [DLinDMA, 1,2-dilinoleyloxy-3-N,N-dimethylaminopropane], the “gene silencing potency series” value [1] is listed as “DLinKC2-DMA>DLinKDMA>DLinDMA>>DLinDAP”.
In the case of CC[C@H](C(=O)N1CCCC[C@H]1C(=O)O[C@H](CCc1ccc(OC)c(OC)c1)c1cccc(OCCN2CCOCC2)c1)c1cc(OC)c(OC)c(OC)c1 [Shield-1], the “binding and stabilization of the DD” value [2] is given as “bind to and stabilize the DD in a dose-dependent manner”.
With “Cas9-D10A: Cas9 nickase with the D10A mutation” the “efficiency relative to nuclease (regular Cas9 without D10 mutation)” value ([3]; double nickase, two sgRNAs targeted to different strands at the same location, hESCs) was “about 50%” and the “induction of NHEJ and indels” value ([3]; single nickase, with a single sgRNA) was “unable to induce NHEJ and create indels”.
For CCCCC/C=C\C/C=C\CCCCCCCCC1(CCCCCCCC/C=C\C/C=C\CCCCC)OCC(CCN(C)C)O1 (stereo not shown) [DLinKC2-DMA, 1,2-dilinoleyl-4-(2-dimethylaminoethyl)-[1,3]-dioxolane], the “gene silencing potency series” value [1] is listed as “DLinKC2-DMA>DLinKDMA>DLinDMA>>DLinDAP”.
For eteplirsen, the “Dystrophin positive fibers compared to baseline, average” value [4] is given as 47% and the Functional benefit [4] is given as “significant functional benefit”.
With Cas9H840A: Cas9 with the H840A mutation the indel formation [5] was “no indel formation is observed”.
In the case of CN(Cc1cnc2nc(N)nc(N)c2n1)c1ccc(C(=O)N[C@@H](CCC(=O)O)C(=O)O)cc1 [methotrexate], the “degradation of DHFRts protein” value [6] is given as “inhibited degradation of the protein partially”.
For CCCCC/C=C\C/C=C\CCCCCCCC(=O)OCC(CN(C)C)OC(=O)CCCCCCC/C=C\C/C=C\CCCCC (stereo not shown) [DLinDAP, 1,2-dilineoyl-3-dimethylammonium-propane], the “gene silencing potency series” value [1] is given as “DLinKC2-DMA>DLinKDMA>DLinDMA>>DLinDAP”.
In the case of “1,2-dilinoleyloxy-keto-N,N-dimethyl-3-aminopropane [DLinKDMA]”, the “gene silencing potency series” value [1] is given as “DLinKC2-DMA>DLinKDMA>DLinDMA>>DLinDAP”.
With COc1cc(Cc2cnc(N)nc2N)cc(OC)c1OC [TMP, trimethoprim] the “effect of ligand addition on the effect of the SpCas9-DD fusion protein” value [7] was “increased the effect of the SpCas9-DD fusion protein in a dose-dependent manner” and the “Effect of added DD ligand on the fusion protein's reduction of EGFP fluorescence” value [8] was “increased the effect of the DSPD fusion protein in a dose-dependent manner”.
